Test results as given in patent publication US20050136020A1, “Silicone-free long-lasting shine hair care compositions” (priority 2003, published 2005).

What was measured:
[1] = Solubility and visual clarity of PEG/PPG-8/3 Laurate in water and oils; assay type: physicochemical
Description: Solubility is the ability of one substance to blend uniformly with another, e.g. solid in liquid or liquid in liquid. Clarity is determined visually. A turbidity meter may be used to measure clarity if the system is not absolutely clear. The solubility of PEG/PPG-8/3 Laurate is up to fifty percent (50%) in water. […] The solubility of PEG/PPG-8/3 Laurate is up to ten percent (10%) in sunflower oil and in castor oil. […] In soybean oil, it is clear at five percent (5%) and slightly hazy at ten percent (10%).

[2] = Index of refraction; assay type: physicochemical
Description: Preferably, the hair care compositions of the present invention have PEG/PPG-8/3 Laurate. […] Refractive index impacts the overall clarity of the present composition. It is preferred to have an aqueous-based composition with a clear color for aesthetic appeal. The hair care compositions of the present invention have a Shine Index of at least 5 hours, preferably about 8 or more hours, and most preferably up to 18 hours or more, thereby providing for extended life shine. “Shine Index” as used herein is the length of time shine persists on treated hair, as evaluated in the test protocol described in Example 1.

PEG/PPG-8/3 Laurate
solubility in castor oil ([1]; in castor oil): ≤ 10% | clarity (visual) in soybean oil at 5% ([1]; in soybean oil, five percent (5%)): clear | clarity (visual) in soybean oil at 10% ([1]; in soybean oil, ten percent (10%)): slightly hazy | clarity (visual) in sunflower and castor oil ([1]; in sunflower and castor oil, up to its solubility limit): clear and homogenous | solubility in sunflower oil ([1]; in sunflower oil): ≤ 10% | solubility in water ([1]; in water): ≤ 50% | clarity (visual) in water ([1]; in water, at concentrations up to its solubility limit): clear and homogeneous | index of refraction [2]: about 1.456
